The text below walks through data of patent publication US11634425B2, “Pharmaceutical compounds” (priority 2019, dated 2023).

Values after ≈ are worked out from the molar mass of the structure shown. Read-outs that look alike come from different tables or passages of the source.

Series [1] can be described thus: Cell cytotoxicity (CC50). Conditions: human; mean of at least two experiments. In kind it is cell-based. The essentials: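 Values are means of ≥2 independent runs, rounded to whole units, from 4-parameter variable-slope curve fits. Toxicity measured in Hep-G2 cells run alongside RSV plaque-reduction assays.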
Series [2] in a line: in vivo. Conditions: male Beagle dog. In kind it is in vivo. The protocol:
The pharmacokinetics of compounds were studied in vivo in dogs at doses of 0.5 mg/kg (IV) and 4 mg/kg (PO).
Male Beagle dogs were treated with experimental compounds via intravenous administration (n=2; 0.5 mg/kg) or oral administration (n=2; 3 or 4 mg/kg). Compounds were formulated as a solution in 20% dimethylacetamide/80% (2-hydroxypropyl)-β-cyclodextrin (20% w/v) (IV administration) or a solution in 10% dimethylacetamide/90% (2-hydroxypropyl)-β-cyclodextrin (20% w/v) (PO administration). […] Serial blood samples were collected from the jugular vein at 0.03, 0.08, 0.25, 0.5, 1, 2, 4, 6, 8 and 24 h post IV dosing of compound, and at 0.08, 0.25, 0.5, 1, 2, 4, 6, 8 and 24 h post oral dosing of compound, and plasma was prepared by centrifugation and stored immediately at −80° C. Samples were subsequently thawed, prepared for analysis by protein precipitation with acetonitrile, and analysed by tandem LCMS using electrospray ionisation using a matrix-matched calibration curve. PK parameters were calculated from the resulting data.

The nature of series [3]: Thermodynamic solubility. In kind it is physicochemical. Conditions: aqueous buffer, thermodynamic from solid; typically phosphate buffered saline pH 7.4, ambient temperature overnight. As for the experimental part: Test compound (2.5 mg of solid; n=1) was weighed in an amber glass vial and buffer (0.5 mL) was added (typically phosphate buffered saline pH 7.4). The solution was agitated at ambient temperature overnight using a vial roller system. The solution was then filtered (0.45 μm pore size; without pre-saturation). Duplicate aliquots (50 μL) are sampled from the filtrate and diluted with one volume of Milli-Q water and methanol (1:1 v/v) before analysis by HPLC-UV. A standard was prepared in DMSO at 10 mg/mL (n=1) which was then diluted 10-fold in Milli-Q water and methanol (1:1 v/v) to give a 1 mg/mL solution. The concentration of test compound in the filtrate was quantified relative to the concentration standard. Analysis was performed using a gradient HPLC-MS system.

A short description of series [4]: in vitro. The note with it: microsomes, pH 7.4, 1 μM compound, 0.5 mg/mL protein, read-out: Liver Microsomal Stability t1/2. In kind it is in vitro ADME. The essentials:
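Pooled liver microsomes (0.5 mg/mL protein) in 0.1 M phosphate pH 7.4 with 1 μM compound and 1 mM NADPH at 37° C., sampled at 0–45 min; minus-NADPH control at 45 min. Acetonitrile quench, LC-MS/MS; t1/2 and CLint from ln peak-area ratio vs time slope.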

Series [5] can be described thus: in vitro. The note with it: hepatocytes, 3 μM compound, read-out: Liver Hepatocyte Stability t1/2. The format is in vitro ADME. The protocol: Compounds were subjected to the following assays to investigate liver microsomal stability and hepatocyte stability.
Hepatocyte Incubation: Experimental Procedure
Cryopreserved pooled hepatocytes were purchased from a reputable commercial supplier and stored in liquid nitrogen prior to use. Williams E media supplemented with 2 mM L-glutamine and 25 mM HEPES and test compound (final substrate concentration 3 μM; final DMSO concentration 0.25%) are pre-incubated at 37° C. prior to the addition of a suspension of cryopreserved hepatocytes (final cell density 0.5×10^6 viable cells/mL in Williams E media supplemented with 2 mM L-glutamine and 25 mM HEPES) to initiate the reaction. The final incubation volume is 500 μL. Two control compounds were included with each species, alongside appropriate vehicle control. The reactions are stopped by transferring 50 μL of incubate to 100 μL acetonitrile containing internal standard at the appropriate time points. Samples were removed at 6 time points (0, 5, 15, 30, 45 and 60 min) over the course of a 60 min experiment. The termination plates are centrifuged at 2500 rpm at 4° C. for 30 min to precipitate the protein. Following protein precipitation, the sample supernatants were combined in cassettes of up to 4 compounds and analysed using generic LC-MS/MS conditions. From a plot of ln peak area ratio (compound peak area/internal standard peak area) against time, the gradient of the line is determined. Subsequently, half-life (t1/2) and intrinsic clearance (CLint) were calculated.

Series [6] relates to RSV A2. Kind of series: RSV plaque reduction assay. The note with it: human respiratory syncytial virus, HepG2, Hep-G2 cells, mean of at least two experiments. In kind it is cell-based, respiratory syncytial virus (RSV). The gist of the method: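 EC50 is the 50% reduction in immunostained plaque count versus virus-control wells, interpolated from variable-slope 4-parameter fits and averaged over at least two runs. Hep-G2 cells were infected with 100 PFU/well RSV A2 premixed with compound, with the inoculum removed after 2 h. Incubation continued at 37 °C for 2 days under a CMC overlay with compound.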
Background: In a plaque reduction assay, fewer plaques than in the control indicate reduced infectivity or spread.

The test system of series [7] is RSV. Conditions: Antimicrobial Agents and Chemotherapy, September 2007, 3346-3353; cited from earlier work.

The CC50 is the concentration giving 50% cytotoxicity. Read a high CC50 as lower toxicity to the cells. By Vd is commonly meant the apparent volume that relates the amount in the body to the concentration in plasma or blood. Read a high Vd as extensive tissue distribution. One may read the clearance as the rate of elimination divided by the concentration. A low value points to a low capacity for elimination. In general, Cmax refers to the peak of the concentration-time curve. A word on the thermodynamic solubility: it is the concentration in solution at equilibrium with solid. As a reminder, the EC50 is the midpoint of the concentration-response curve. Lower therefore signals a more potent agent. For `Cc1nc2ccc(Cl)nn2c1C(=O)N[C@H]1N=C(c2ccccc2)c2cccc(F)c2NC1=O` [Example 20, 6-Chloro-N-[(3S)-9-fluoro-2-oxo-5-phenyl-1,3-dihydro-1,4-benzodiazepin-3-yl]-2-methylimidazo[1,2-b]pyridazine-3-carboxamide], in series [1], the CC50 was > 25 µM. In series [2] (in vivo, IV 0.5 mg/kg), this molecule had a Vd of 1.2 L/kg. Besides, the clearance in series [2] (in vivo, IV 0.5 mg/kg) was found to be 1.6 mL/min/kg. In series [2] (in vivo, IV 0.5 mg/kg / PO 3 or 4 mg/kg study), this molecule returned a Cmax of 3850 ng/mL. Also, the half-life in series [2] (in vivo, IV 0.5 mg/kg, read-out: IV t1/2 (converted)) is 618 min; in series [2] (in vivo, PO 3 or 4 mg/kg, read-out: PO t1/2 (converted)) it was 1150 min. The AUC(0-t) in series [2] (in vivo, PO 3 or 4 mg/kg, read-out: PO AUClast) was 43700 ng·h/mL. Further, the “C 8 h” value in series [2] (8 h, IV 0.5 mg/kg / PO 3 or 4 mg/kg study) is 1581 ng/mL. The molecule also had a F in series [2] (IV 0.5 mg/kg, PO 3 or 4 mg/kg) of 118%. Further, the thermodynamic solubility in series [3] was 3.84 µM (≈ 1.78 µg/mL). Moreover, the half-life at 1 μM was > 140 min in series [4] (dog), > 140 min in series [4] (human) and 101 min in series [4] (rat). The half-life at 3 μM in series [5] (dog) worked out at 132 min; in series [5] (human), 131 min; in series [5] (rat), 175 min. This molecule also yielded an EC50 in series [6] of 114 nM.

With `O=C(Nc1ccccc1F)N[C@H]1N=C(c2ccccc2)c2ccccc2NC1=O` [RSV604], the anti-RSV activity entry in series [7] is given as “sub-micromolar”.
